# Assay results: patent publication US12459931B2, “Benzothiophene derivative regulator, preparation method therefor and use thereof” (Shanghai Hansoh Biomedical Co., Ltd., priority 2019, dated 2025)
# Read-outs that look alike come from different tables or passages of the source.
# Experiments:
# [1] = biological target: Human Dopamine D3 Receptor (Homo sapiens (Human), UniProt P35462); test: Radioligand-receptor binding assay, dopamine D3 receptor ([3H]-methylspiperone); conditions: [3H]-methylspiperone 0.5 nM, human D3 receptor membrane
# Description: Determination of the Binding Ability of the Compounds of the Present Invention to Dopamine D3 Receptor
# The objective of this test example is to determine the affinity of the compounds for dopamine D3 receptor.
# Assay buffer: 50 mM Tris-HCl pH 7.4, 10 mM MgCl2; wash solution: 50 mM Tris-HCl pH 7.4, stored at 4° C.; 0.5% PEI solution: 0.5 g PEI dissolve in 100 mL ddH2O, 4° C. storage of spare.
# (§1) 5 μL of the test compounds (0.005 nM to 100 nM, 10 concentrations in total) and 100 μL of buffer were added to a 96-well assay plate. 1 μL of cell membrane and 300 μL of buffer were added to each well, and the plate was shaken at 600 rpm for 5 min. A mixed solution of 100 μL of buffer and [^3H]-methylspiperone (the final concentration was 0.5 nM) was added to each well. The plate was shaken at 600 rpm for 5 min, and incubated at 27° C. for 30 min. The […]-96 GF/B filter plate pre-incubated with 0.5% PEI for 1 h was washed twice with the buffer (1 mL/well). The cell membrane suspension was added to the […]-96 GF/B filter plate, washed 4 times, and incubated at 55° C. for 10 min. 40 μL of ULTIMA GOLD was added to each well, and liquid scintillation counting was carried out.
# (§2) The CPM (Counts per minute) values were determined by TopCount. […] The 10 concentrations of the compound were from 100 nM to 0.005 nM after 3-fold dilution of the reaction system. The percent inhibition rate and ten-point concentration data were fitted to the parametric nonlinear logistic equation by using GraphPad prism to calculate the IC50 values of the compound.
# 5-HT2A receptor [2] = biological target: T1, 5-HT2A receptor (Homo sapiens (Human), UniProt P28223); test: Radioligand-receptor binding assay, 5-HT2A receptor ([3H]-Ketanserin); conditions: [3H]-Ketanserin 2 nM, human 5-HT2A receptor membrane; read-out: 5HT-2A binding activity IC50
# Description: Determination of the Binding Ability of the Compounds of the Present Invention to 5-HT2A Receptor
# The objective of this test example is to determine the affinity of the compounds for 5-HT2A receptor.
# Assay buffer: 50 mM Tris-HCl pH 7.4, 4 mM CaCl2); wash solution: 50 mM Tris-HCl pH 7.4, stored at 4° C.; 0.5% PEI solution: 0.5 g PEI dissolve in 100 mL ddH2O, 4° C. storage of spare.
# as §1, with “plate. 1.5” for “plate. 1”, “300 L” for “300 μL”, “each well. The” for “each well, and the”, “and [^3H]-Ketanserin” for “and [^3H]-methylspiperone”, “was 2” for “was 0.5”
# as §2
# D3 receptor = D3 receptor (Homo sapiens (Human), UniProt P35462); test: Effect on cAMP content in cells stably expressing D3 receptors (CHO-D3); type: cell-based; conditions: forskolin stimulated, activation
# Description: To determine the activation effect of the compounds on D3 receptor.
# 3. The experimental buffer (1*HBSS, 0.1% BSA, 20 mM HEPES and 500 μM IBMX) was prepared. The compound was diluted with the buffer. 2.5 μL of the compound solution was added to each well, and the plate was incubated at 37° C. for 10 minutes. The forskolin was diluted to 8 μM (8*) with the experimental buffer. […] The reaction plate was centrifuged at 200 g for 30 s at room temperature, and left to stand at 25° C. for 1 h. Data was collected using Envision.
# [3] = Pharmacokinetic assay in Balb/c mice (plasma and brain tissue); type: in vivo; conditions: p.o. 5 mg/kg; for AUC(0-t) / AUC(0-inf) / Cmax / MRT / half-life: male, Balb/c, mouse, po; for AUC(0-t): read-out: Area under curve AUC0-t; for AUC(0-inf): read-out: Area under curve AUC0-∞; for Cmax: read-out: Plasma concentration Cmax; for MRT: read-out: Average residence time MRT; for half-life: read-out: Half life t1/2 (converted)
# Description: III. Pharmacokinetic Assay in Balb/c Mice
# Balb/c mice were used as test animals. The pharmacokinetic behavior of the compounds of Examples of the present invention was studied in mouse body (plasma and brain tissue) by orally administration at a dose of 5 mg/kg.
# Male Balb/c mice (12 mice per group), purchased from Shanghai Jiesijie Laboratory Animal Co., LTD, with Certificate No.: SCXK (Shanghai) 2013-0006 N0.311620400001794. • 2.3 Formulation of the preparation: […]
# The test compound was dissolved in 0.5% CMC-Na (1% Tween80) by sonication to formulate a clear solution or homogeneous suspension. • 2.4 Administration:
# After an overnight fast, male Balb/c mice (12 mice per group) were administered p.o. with the test compound at a dose of 5 mg/kg and a volume of 10 mL/kg. • 2.5 Sample collection:
# 0.2 mL of blood was taken from the heart of the mouse before administration and at 1, 2, 4, 8 and 24 hours after administration, and the mice were sacrificed with CO2. The samples were stored in EDTA-K2 tubes, and centrifuged for 6 minutes at 4° C., 6000 rpm to separate the plasma. The plasma samples were stored at −80° C. Whole brain tissue was taken out, weighed, placed in a 2 mL centrifuge tube, and stored at −80° C. • 2.6 Sample process:
# 1) 160 μL of acetonitrile was added to 40 μL of the plasma sample for precipitation, and then the mixture was centrifuged at 3500×g for 5 to 20 minutes.
# 2) 90 μL of acetonitrile containing internal standard (100 ng/mL) was added to 30 μL of the plasma and brain homogenate sample for precipitation, and then the mixture was centrifuged at 13000 rpm for 8 minutes.
# 3) 70 μL of water was added to 70 μL of the treated supernatant and mixed by vortex for 10 minutes. 20 μL of the solution was taken to analyze the concentration of the test compound by LC/MS/MS. LC/MS/MS analytical instrument: AB Sciex API 4000 Qtrap. • 2.7 Liquid chromatography analysis: • Liquid chromatography condition: Shimadzu LC-20AD pump • Chromatographic column: Agilent ZORBAX XDB-C18 (50×2.1 mm, 3.5 μm); Mobile phase: Eluent A was 0.1% formic acid in water, and Eluent B was acetonitrile • Flow rate: 0.4 mL/min • Elution time: 0-4.0 minutes the eluent is as follows:
# The main parameters of pharmacokinetics were calculated by WinNonlin 6.1.
# [4] = Stability assay in liver microsome in vitro; type: in vitro ADME, Mouse
# Description: IV. Stability Assay in Liver Microsome In Vitro
# To evaluate the metabolic stability of the compounds of the present invention in liver microsome in vitro.
# Formulation of the working solution of the compound: 2 μL of the stock solution of the compound was added to 998 μL of phosphate buffer, and the final concentration was 20 μM.
# Formulation of the working solution of the control compound (7-hydroxycoumarin): The formulation was consistent with that of the compound. • 3.2. Formulation of the working solution of liver microsome
# 78.1 μL of 20 mg/mL microsome was diluted to 2.5 mL with 100 mM phosphate buffer and mixed well, and the final concentration was 0.625 mg/mL. • 3.3. Formulation of NADPH and UDPGA
# 33.3 mg of NADPH and 25.8 mg of UDPGA were weighed respectively, followed by the addition of 2 mL of 100 mM phosphate buffer. The final concentrations were 20 mM. • 3.4. Formulation of the channel-forming reagent (Alamethicin)
# 1 mg of Alamethicin was weighed, to which 200 μL of DMSO was added to obtain a 5 mg/mL solution. 10 μL of this solution was added to 990 μL of phosphate buffer (pH 7.4), and the final concentration was 50 μg/mL. • 3.5. Formulation of the reaction stop solution
# Stop solution: Cold acetonitrile containing 100 ng/mL labetalol hydrochloride and 400 ng/mL tolbutamide was used as internal standards, and stored in a refrigerator at 2 to 8° C. • 3.6. Incubation procedure
# 400 μL of the formulated liver microsome, 25 μL of the working solution of the compound […] and 25 μL of Alamethicin (50 μg/mL) were added to a 96-well plate successively, which was then pre-incubated at 37° C. for 10 min. 50 μL of the formulated NADPH/UDPGA was added to initiate the reaction, and the plate was incubated at 37° C. The total volume of the reaction system was 500 μL. The final contents of the components were as follows:
# […] The resulting sample was centrifuged at 4000 g for 10 min, and the supernatant was collected for LC-MS/MS analysis.
# Rats F344 = test: Pharmacodynamic model of active escape experiment in rats; type: in vivo; conditions: oral, dose 1 mg/kg, one hour before the test
# Description: V. Pharmacodynamic Model of Active Escape Experiment in Rats
# To evaluate the anti-schizophrenic effect of the compounds using the pharmacodynamic model of the active escape experiment in rats.
# 4. Formulation of the Vehicle and Compounds: • 4.1 Vehicle (0.5% CMC-Na+1% Tween80)
# A certain mass (such as 1.0 g) of CMC-Na was weighed into a glass bottle, a certain volume (such as 200 mL) of purified water was added, and the resulting mixture was stirred to disperse evenly. 1% (v/v) Tween 80 was added according to the solution volume, and the resulting mixture was stirred overnight to obtain a homogeneous clear solution, which was stored at 2 to 8° C. for later use. • 4.2 Formulation of the compounds: […]
# A formula amount of the compound was weighed, followed by the addition of a formula volume of 0.5% CMC-Na+1% Tween 80 solution. The compound solution was formulated before the administration, stored at 2 to 8° C., and used within 4 days.
# The day before the compound screening test, a baseline test was performed. The test procedure was the same as 5.1.1 to 5.1.3, and the number of the baseline test was 20. The animals whose number of avoids reached 16 (80%) were grouped according to the number of avoids, 10 animals per group. The first group was administered with the vehicle orally, and the other groups were administered with the corresponding test compounds according to the experimental design. • 5.3 Compound screening test
# The compound was administered orally (5 mL/kg) one hour before the test;
# The test procedure was the same as 5.1.1 to 5.1.4, and the number of the test was 20.
# The following data was collected by the software for data analysis: • Number of avoids of the animal; • Number of escape failures of the animal; • Escape latency of the animal;
# All measurement data were expressed as mean±standard error (Mean±SEM), and analyzed by Graphpad 6 statistical software. The difference was considered to be significant when p<0.05.
# 5-HT2A receptor [5] = biological target: T1, 5-HT2A receptor; test: Effect on calcium ion mobility in cells stably expressing 5-HT2A receptors (Flp-In-CHO-5HT2A, FLIPR); type: cell-based; conditions: Flp-In-CHO-5HT2A cells, 5HT as agonist
# Description: To determine the inhibitory effect of the compounds on 5-HT2A receptor.
# Probenecid and BSA were added fresh on the day of the experiment.
# The calcium signal values were determined by FLIPR. […] The percent inhibition rate and ten-point concentration data were fitted to the parametric nonlinear logistic equation by using GraphPad prism to calculate the IC50 values of the compound.
# T1 sequence (P28223 whole entry): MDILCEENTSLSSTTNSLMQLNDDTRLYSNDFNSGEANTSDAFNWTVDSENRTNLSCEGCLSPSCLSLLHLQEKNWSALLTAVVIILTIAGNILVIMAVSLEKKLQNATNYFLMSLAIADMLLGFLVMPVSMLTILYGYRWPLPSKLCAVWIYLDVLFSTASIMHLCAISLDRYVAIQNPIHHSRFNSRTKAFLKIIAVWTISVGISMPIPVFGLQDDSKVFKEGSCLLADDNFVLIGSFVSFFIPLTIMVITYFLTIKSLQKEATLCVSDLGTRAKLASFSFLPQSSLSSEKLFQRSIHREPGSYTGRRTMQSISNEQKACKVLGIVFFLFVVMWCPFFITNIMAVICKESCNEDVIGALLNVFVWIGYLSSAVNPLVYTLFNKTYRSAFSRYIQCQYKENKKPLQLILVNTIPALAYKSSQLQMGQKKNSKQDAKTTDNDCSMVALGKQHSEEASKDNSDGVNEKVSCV
# Chain of Human Dopamine D3 Receptor (P35462 whole entry): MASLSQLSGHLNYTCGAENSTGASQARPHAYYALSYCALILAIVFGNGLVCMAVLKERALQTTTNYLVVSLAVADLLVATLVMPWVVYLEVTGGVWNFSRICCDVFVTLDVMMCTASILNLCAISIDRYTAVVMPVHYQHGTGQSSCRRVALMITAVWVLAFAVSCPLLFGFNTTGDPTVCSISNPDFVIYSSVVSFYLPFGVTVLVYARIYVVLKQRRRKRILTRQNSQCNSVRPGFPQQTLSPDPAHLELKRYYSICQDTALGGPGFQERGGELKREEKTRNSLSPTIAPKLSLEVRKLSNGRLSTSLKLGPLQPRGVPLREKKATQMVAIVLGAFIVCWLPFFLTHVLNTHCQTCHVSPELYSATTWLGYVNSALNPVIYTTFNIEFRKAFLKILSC
# Chain of D3 receptor (P35462 whole entry): as above
IC50 [1],IC50 (5-HT2A receptor [2]),EC50 (D3 receptor),Peak time tmax ([3]; Brain),Peak time tmax ([3]; Plasma),AUC(0-t) ([3]; Brain),AUC(0-inf) ([3]; Brain),Cmax ([3]; Brain),AUC(0-t) ([3]; Plasma),AUC(0-inf) ([3]; Plasma),MRT ([3]; Plasma),half-life ([3]; Plasma),Cmax ([3]; Plasma),"half-life at 1 μM ([4]; CD-1, liver microsomes, pH 7.4, Mouse liver microsome 0.5 mg/mL, compound 1 μM, NADPH/UDPGA, read-out: Half life (t1/2))","microsomal CLint at 1 μM ([4]; CD-1, liver microsomes, pH 7.4, Mouse liver microsome, note: Slow <8.8, Rapid >48.0, read-out: Intrinsic clearance rate (CLint))","Remaining (%, 120 min) ([4]; Mouse liver microsome, 120 min)",IC50 (5-HT2A receptor [5]),SMILES,CAR value (Rats F344),EF (Rats F344)
0.43 nM,0.37 nM,0.1 nM,1 h,1 h,14100 ng·h/mL,16500 ng·h/mL,1390 ng/mL,4140 ng·h/mL,4860 ng·h/mL,11.8 h,8.9 h,403 ng/mL,–,–,–,–,"O=C(N[C@H]1CC[C@H](CCN2CCN(c3cccc4sccc34)CC2)CC1)c1ncco1 [Example 43, N-(Trans-4-(2-(4-(benzo[b]thiophen-4-yl)piperazin-1-yl)ethyl)cyclohexyl)oxazole-2-carboxamide]",–,–
–,–,–,–,–,–,–,–,–,–,–,–,–,1.1 h,21.1 µL/min/mg,30.5%,–,"CN(C)C(=O)N[C@H]1CC[C@H](CCN2CCN(c3cccc(Cl)c3Cl)CC2)CC1 [Cariprazine, reference compound]",45.5%,5.5%
0.83 nM,0.43 nM,–,1 h,6 h,4590 ng·h/mL,4960 ng·h/mL,328 ng/mL,3070 ng·h/mL,3390 ng·h/mL,9.21 h,7.3 h,192 ng/mL,–,–,–,3.16 nM,"O=C(N[C@H]1CC[C@](F)(CCN2CCN(c3cccc4sccc34)CC2)CC1)c1ccco1 [Example 40, N-(Cis-4-(2-(4-(benzo[b]thiophen-4-yl)piperazin-1-yl)ethyl)-4-fluorocyclohexyl)furan-2-carboxamide]",–,–

SMILES,IC50 [1],IC50 (5-HT2A receptor [2]),EC50 (D3 receptor),Peak time tmax ([3]; Brain),Peak time tmax ([3]; Plasma),AUC(0-t) ([3]; Brain),AUC(0-inf) ([3]; Brain),Cmax ([3]; Brain),AUC(0-t) ([3]; Plasma),AUC(0-inf) ([3]; Plasma),MRT ([3]; Plasma),half-life ([3]; Plasma),Cmax ([3]; Plasma),"half-life at 1 μM ([4]; CD-1, liver microsomes, pH 7.4, Mouse liver microsome 0.5 mg/mL, compound 1 μM, NADPH/UDPGA, read-out: Half life (t1/2))","microsomal CLint at 1 μM ([4]; CD-1, liver microsomes, pH 7.4, Mouse liver microsome, note: Slow <8.8, Rapid >48.0, read-out: Intrinsic clearance rate (CLint))","Remaining (%, 120 min) ([4]; Mouse liver microsome, 120 min)",IC50 (5-HT2A receptor [5]),CAR value (Rats F344),EF (Rats F344)
"CCNC(=O)N[C@H]1CC[C@](F)(CCN2CCN(c3cccc4sccc34)CC2)CC1 [Example 16, 1-(Cis-4-(2-(4-(benzo[b]thiophen-4-yl)piperazin-1-yl)ethyl)-4-fluorocyclohexyl)-3-ethylurea]",0.57 nM,2.07 nM,–,–,–,–,–,–,–,–,–,–,–,–,–,–,–,–,–
